Among the test systems are IGROV1 ovarian; HCC-2998 colon; SNB-19 CNS; HT29 colon; HL-60(TB) leukemia; ACHN renal; UACC-257 melanoma; EKVX NSCLC; U251 CNS.
What all share (experiment): NCI-60 cell line screen, 48 h

Each structure is given as a SMILES string. Several values for one entry are separate records, joined by “and”; a condition that tells them apart may be missing. Equal values may be shown once.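 Five compound concentrations were applied to cells in 96-well plates for 48 hours; endpoints were derived by simple linear interpolation of the resulting dose-response curve. GI50: concentration for 50% inhibition of growth. TGI: total growth inhibition.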 A value given as a limit tells only on which side of the number the result lay.

Take `O=C(/C(=C/c1ccc([N+](=O)[O-])cc1)c1ccccc1)c1ccccc1`: the GI50 in the assay with IGROV1 ovarian is 3.25 µM; with HCC-2998 colon, 2.38 µM; with SNB-19 CNS it was 3.9 µM; in the assay on HT29 colon, 3.33 µM; with HL-60(TB) leukemia, 2.29 µM. The TGI is more than 100 µM in the assay on IGROV1 ovarian; 5.24 µM in the assay on HCC-2998 colon; more than 100 µM in the assay with SNB-19 CNS; more than 100 µM in the assay on HT29 colon; 5.71 µM in the assay on HL-60(TB) leukemia.

For `CCOC(=O)c1oc2ccc(OC)c3c2c1CCC3`, the TGI is more than 100 µM in the assay on IGROV1 ovarian; more than 100 µM in the assay with ACHN renal; more than 100 µM with HCC-2998 colon; 40 µM with UACC-257 melanoma; more than 100 µM in the assay with SNB-19 CNS; more than 100 µM in the assay with EKVX NSCLC. The TGI in the assay on U251 CNS and with HL-60(TB) leukemia was more than 100 µM in each case.

In the case of `COc1cc(C(=O)C/C(CCC(=O)Nc2ccccc2[N+](=O)[O-])=N\NC(=O)CC#N)ccc1O`, the TGI in the assay on IGROV1 ovarian, with ACHN renal, in the assay with HCC-2998 colon, in the assay with UACC-257 melanoma, in the assay with SNB-19 CNS and in the assay on EKVX NSCLC was more than 100 µM each time. Moreover, the TGI in the assay on HT29 colon and in the assay with HL-60(TB) leukemia was more than 100 µM each time.

As for `CS(=O)(=O)c1ccc(C(=O)Nc2ccc(Cl)c(-c3ccccn3)c2)c(Cl)c1`, the TGI with IGROV1 ovarian was more than 100 µM; in the assay on ACHN renal, > 100 µM and 23.5 µM; in the assay with SNB-19 CNS, more than 100 µM; in the assay with EKVX NSCLC, > 100 µM and 14.9 µM; in the assay on U251 CNS it was > 100 µM and 15.8 µM.

For the compound `CCOC(=O)C1Oc2ccc([N+](=O)[O-])c3c2C1(O)CCC3` (stereo unspecified), the TGI in the assay on IGROV1 ovarian, in the assay on ACHN renal, with HCC-2998 colon, in the assay on UACC-257 melanoma, in the assay with SNB-19 CNS and with EKVX NSCLC was more than 100 µM throughout. For the same compound, the TGI in the assay with U251 CNS, with HT29 colon and with HL-60(TB) leukemia was more than 100 µM each time.

Regarding `CCOC(=O)C1=C(NC)OC/C1=N\NC(=O)c1ccccc1O`, the TGI is more than 100 µM in the assay on IGROV1 ovarian; more than 100 µM with HCC-2998 colon; 17.3 µM with UACC-257 melanoma; more than 100 µM in the assay with SNB-19 CNS; more than 100 µM in the assay on EKVX NSCLC; more than 100 µM in the assay on U251 CNS. The compound also yielded a TGI in the assay on HL-60(TB) leukemia of 71.4 µM.

As for `CCOc1ccc2nc(NC(=O)c3c/c(=N\NC(=O)C[N+](C)(C)C)c4ccc(O)cc4o3)sc2c1`, the TGI in the assay on IGROV1 ovarian was 8.64 µM; with ACHN renal, 13.8 µM; in the assay with HCC-2998 colon, 20.8 µM; with UACC-257 melanoma, 3.16 µM; in the assay on SNB-19 CNS, 17.8 µM; in the assay with EKVX NSCLC it was 11.9 µM. The results for the TGI in the assay with U251 CNS, with HT29 colon and in the assay on HL-60(TB) leukemia were 10.5 µM, 13 µM and 3.83 µM, respectively.

Take `C=C1COC(/C=C(\C)CC/C=C(\C)CCl)C1` (stereo unspecified): the TGI in the assay with IGROV1 ovarian, in the assay on ACHN renal, with HCC-2998 colon, in the assay with SNB-19 CNS, with EKVX NSCLC and with U251 CNS was more than 100 µM each time. In addition, the TGI in the assay on HT29 colon and in the assay with HL-60(TB) leukemia was more than 100 µM each time.

Take `COc1ccc(OC)c(NC(=O)CCC/C(CC(=O)c2ccc(O)c(OC)c2)=N\NC(=O)C[N+](C)(C)C)c1`: the TGI in the assay on IGROV1 ovarian, in the assay on ACHN renal, in the assay on HCC-2998 colon, in the assay with UACC-257 melanoma, with SNB-19 CNS and with EKVX NSCLC was more than 100 µM in each case. Moreover, the TGI in the assay with U251 CNS, in the assay with HT29 colon and in the assay with HL-60(TB) leukemia was more than 100 µM in each case.

On to `CCCCCCCCCCCC(=O)OCCOCCOCCOCCOCCOCc1ccc(OC)cc1`, for which the TGI with IGROV1 ovarian, with ACHN renal, in the assay on HCC-2998 colon, in the assay on UACC-257 melanoma, in the assay on SNB-19 CNS and in the assay on EKVX NSCLC was more than 100 µM each time. Also, the TGI with U251 CNS is more than 100 µM; in the assay on HT29 colon, more than 100 µM; in the assay on HL-60(TB) leukemia, 51.7 µM.

`COc1ccc(C2CC(c3cc(OC)c(OC)c(OC)c3)=NN2C(C)=O)cc1OCC(=O)Nc1nc2ccc(C(F)(F)F)cc2s1` (stereo unspecified): the GI50 in the assay on IGROV1 ovarian was 5.3 µM; with ACHN renal, 2.48 µM; in the assay on HCC-2998 colon, more than 100 µM; in the assay with SNB-19 CNS, 11 µM; in the assay with EKVX NSCLC, 4.1 µM; in the assay on U251 CNS, 3.08 µM. The TGI was more than 100 µM in the assay with IGROV1 ovarian; 7.13 µM with ACHN renal; more than 100 µM in the assay on HCC-2998 colon; 35.8 µM in the assay with SNB-19 CNS; more than 100 µM in the assay with EKVX NSCLC; 9.9 µM in the assay with U251 CNS.

Consider `Cn1c2c(cc(S(=O)(=O)c3ccccc3)c1=O)CCc1c-2cnn1-c1ccc(Cl)cc1`, for which the GI50 in the assay with IGROV1 ovarian is 3.22 µM; with ACHN renal it was 1.98 µM; with HCC-2998 colon, 7.31 µM; in the assay on SNB-19 CNS, 2.01 µM; in the assay with EKVX NSCLC, 3.62 µM; with U251 CNS, 2.1 µM. Besides, the GI50 in the assay with HT29 colon is 3.31 µM; in the assay with HL-60(TB) leukemia, more than 100 µM. Also, the TGI in the assay with IGROV1 ovarian is more than 100 µM; in the assay with ACHN renal it was 3.88 µM; with HCC-2998 colon, more than 100 µM; in the assay on SNB-19 CNS, 4.33 µM; with EKVX NSCLC it was 31 µM; in the assay on U251 CNS, 3.98 µM. The TGI in the assay with HT29 colon and in the assay with HL-60(TB) leukemia was more than 100 µM throughout.

With `COC1CC(OS(=O)(=O)c2ccc(C)cc2)C(OC(=O)c2ccccc2)C(C)O1` (stereo unspecified), the GI50 in the assay with IGROV1 ovarian, in the assay on ACHN renal, in the assay on HCC-2998 colon, in the assay with SNB-19 CNS, in the assay on EKVX NSCLC and in the assay on HT29 colon was more than 100 µM in each case. Also, the GI50 in the assay with HL-60(TB) leukemia was more than 100 µM. Moreover, the TGI is more than 100 µM in the assay on IGROV1 ovarian; more than 100 µM with ACHN renal; more than 100 µM in the assay with HCC-2998 colon; more than 10 µM in the assay on UACC-257 melanoma; more than 100 µM with SNB-19 CNS; more than 100 µM in the assay with EKVX NSCLC. For the same compound, the values for the TGI in the assay on U251 CNS, in the assay with HT29 colon and in the assay with HL-60(TB) leukemia were more than 10 µM, more than 100 µM and more than 100 µM, respectively.

The values above are taken from PubChem BioAssay (NCI).
